Tests used:
Tankyrases = assay: Measurement of cellular inhibition of Tankyrase (Axin2 level, Luminex based assay, DLD1 cells); assay type: cell-based; settings: increase of Axin2 level, 24 hours, read-out: EC50 [M] TNKS cellular assay
PARP-1 = PARP-1 (Homo sapiens (Human), UniProt P09874); assay: Biochemical activity testing of PARP-1: autoparsylation assay (HTRF); settings: His-tagged Parp-1, autoparsylation HTRF
TNKS1 = TNKS1 (Homo sapiens (Human), UniProt O95271); assay: biochemical; assay type: biochemical; settings: GST-tagged Tnks-1 (1023-1327 aa); read-out: IC50 [M] TNKS1 ELISA
TNKS2 = TNKS2 (Homo sapiens (Human), UniProt Q9H2K2); assay: biochemical; assay type: biochemical; settings: GST-tagged Tnks-2 (873-1166 aa); read-out: IC50 [M] TNKS2 ELISA
DLD-1-cancer cells = settings: Huang et al., 2009; cited from earlier work
Tankyrase = settings: prior art value; read-out: cellular assay: EC50; cited from earlier work

Chain of PARP-1 (P09874 whole entry, the tested form may be a part): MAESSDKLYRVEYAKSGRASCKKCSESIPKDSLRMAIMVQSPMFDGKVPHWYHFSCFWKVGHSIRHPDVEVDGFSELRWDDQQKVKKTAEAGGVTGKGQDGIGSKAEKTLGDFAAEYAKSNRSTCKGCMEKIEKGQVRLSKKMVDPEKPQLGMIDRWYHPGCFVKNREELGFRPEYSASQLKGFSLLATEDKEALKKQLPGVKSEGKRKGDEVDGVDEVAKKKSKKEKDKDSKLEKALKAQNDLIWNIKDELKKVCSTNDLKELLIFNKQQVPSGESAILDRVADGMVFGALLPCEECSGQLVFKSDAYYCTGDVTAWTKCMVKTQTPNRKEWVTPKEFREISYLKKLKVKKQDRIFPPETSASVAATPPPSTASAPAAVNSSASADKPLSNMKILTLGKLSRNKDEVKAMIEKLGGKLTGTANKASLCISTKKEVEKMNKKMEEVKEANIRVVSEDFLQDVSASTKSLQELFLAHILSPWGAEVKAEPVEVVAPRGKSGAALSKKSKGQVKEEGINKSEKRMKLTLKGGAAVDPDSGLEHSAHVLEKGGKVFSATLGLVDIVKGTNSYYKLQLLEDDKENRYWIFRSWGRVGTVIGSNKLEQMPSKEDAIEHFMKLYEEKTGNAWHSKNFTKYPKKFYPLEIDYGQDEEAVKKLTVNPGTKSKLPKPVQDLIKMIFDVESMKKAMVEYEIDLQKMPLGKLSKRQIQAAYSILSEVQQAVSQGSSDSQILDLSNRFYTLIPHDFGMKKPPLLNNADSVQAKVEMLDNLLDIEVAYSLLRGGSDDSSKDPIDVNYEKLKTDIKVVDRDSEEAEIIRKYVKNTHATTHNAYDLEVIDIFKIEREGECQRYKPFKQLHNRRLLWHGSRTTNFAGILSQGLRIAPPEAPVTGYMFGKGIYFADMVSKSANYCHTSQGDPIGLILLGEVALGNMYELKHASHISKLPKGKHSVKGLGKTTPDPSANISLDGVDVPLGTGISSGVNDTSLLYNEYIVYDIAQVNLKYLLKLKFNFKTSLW

## COc1ccc(C(=O)C2CCN(C(=O)CC(C)(C)Cc3nc4c(cnn4C)c(=O)[nH]3)CC2)cn1 [Compound C21, 6-{4-[4-(6-Methoxy-pyridine-3-carbonyl)-piperidin-1-yl]-2,2-dimethyl-4-oxo-butyl}-1-methyl-1,5-dihydro-pyrazolo[3,4-d]pyrimidin-4-one]
Tankyrases
  EC50: 1.6e-08 M
PARP-1
  IC50: > 30000 nM
TNKS1
  IC50: 3.6e-09 M
TNKS2
  IC50: 2.1e-09 M

## COc1ncc(C(=O)C2CCN(C(=O)CC(C)(C)Cc3nc4c(cnn4C)c(=O)[nH]3)CC2)cc1C [Compound C22, 6-{4-[4-(6-Methoxy-5-methyl-pyridine-3-carbonyl)-piperidin-1-yl]-2,2-dimethyl-4-oxo-butyl}-1-methyl-1,5-dihydro-pyrazolo[3,4-d]pyrimidin-4-one]
Tankyrases
  EC50: 7.9e-09 M
PARP-1
  IC50: > 30000 nM
TNKS1
  IC50: 2.2e-09 M
TNKS2
  IC50: 1.8e-09 M

## Oc1nc(-c2ccc(C(F)(F)F)cc2)nc2c1CSCC2 [XAV939]
DLD-1-cancer cells
  growth of DLD-1-cancer cells: inhibits growth

## COc1ccc(C(=O)C2CCN(CC(=O)N(Cc3nc4c(c(=O)[nH]3)COCC4)CC3CC3)CC2)cc1 [benzoylpiperidine derivative]
Tankyrase
  EC50: 35 nM
